We go through five compounds from patent US10822349B2, “Macrocyclic purines for the treatment of viral infections” (JANSSEN SCIENCES IRELAND UNLIMITED COMPANY, priority 2012, dated 2020).

What all share (type): cell-based
One experiment has as its target T1, human TLR7 (Homo sapiens, UniProt Q9NYK1).
T1 construct: expressed in transfected cells; host or cells: HEK293
T1 sequence (Q9NYK1 27-1049): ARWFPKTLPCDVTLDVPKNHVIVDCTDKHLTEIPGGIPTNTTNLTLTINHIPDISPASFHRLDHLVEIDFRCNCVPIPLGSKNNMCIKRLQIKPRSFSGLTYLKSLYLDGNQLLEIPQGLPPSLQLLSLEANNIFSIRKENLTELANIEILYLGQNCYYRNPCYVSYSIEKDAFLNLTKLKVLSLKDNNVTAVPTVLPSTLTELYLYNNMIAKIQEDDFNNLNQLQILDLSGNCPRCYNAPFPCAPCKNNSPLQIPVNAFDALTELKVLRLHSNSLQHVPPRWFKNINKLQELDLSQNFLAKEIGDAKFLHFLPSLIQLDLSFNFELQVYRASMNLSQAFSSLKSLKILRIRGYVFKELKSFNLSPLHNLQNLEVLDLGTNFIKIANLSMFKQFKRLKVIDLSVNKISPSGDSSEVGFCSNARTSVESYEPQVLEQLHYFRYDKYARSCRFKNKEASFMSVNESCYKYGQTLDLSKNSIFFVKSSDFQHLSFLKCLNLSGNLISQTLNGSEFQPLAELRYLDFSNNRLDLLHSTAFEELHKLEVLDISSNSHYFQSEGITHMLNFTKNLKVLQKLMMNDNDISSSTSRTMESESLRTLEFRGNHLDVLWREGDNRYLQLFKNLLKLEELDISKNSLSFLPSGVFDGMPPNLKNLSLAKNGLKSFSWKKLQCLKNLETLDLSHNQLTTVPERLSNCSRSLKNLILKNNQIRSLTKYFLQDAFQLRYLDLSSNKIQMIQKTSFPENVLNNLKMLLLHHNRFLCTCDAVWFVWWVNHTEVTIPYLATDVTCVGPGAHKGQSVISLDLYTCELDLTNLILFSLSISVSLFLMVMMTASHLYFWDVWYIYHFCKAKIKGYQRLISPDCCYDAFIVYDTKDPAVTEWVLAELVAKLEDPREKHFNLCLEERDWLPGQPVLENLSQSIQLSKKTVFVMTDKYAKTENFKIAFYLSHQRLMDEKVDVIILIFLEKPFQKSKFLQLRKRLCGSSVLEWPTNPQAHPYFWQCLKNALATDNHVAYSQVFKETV
As to the kind of experiment: TLR7 cellular reporter assay (HEK293 TLR7-NFκB-luc). The following applies: lowest effective concentration; HEK293 transiently transfected with TLR7 and NFκB-luc; 6 hours incubation. A digest of the protocol: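 HEK293 cells transiently co-transfected with CMV-TLR7 or TLR8 plasmid plus NFκB-luciferase reporter, 48 h post-transfection, then exposed to compound (added in 4% DMSO) for 6 h at 37 °C. Luciferase read-out; quadruplicate dose-response, LEC defined as concentration giving effect at least two-fold above assay SD.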
(A reporter such as luciferase makes a cellular process visible.)

In a further experiment the target is T2, human TLR8 (Homo sapiens, UniProt Q9NR97).
T2 construct: expressed in transfected cells; host or cells: HEK293
T2 sequence (Q9NR97 27-1041): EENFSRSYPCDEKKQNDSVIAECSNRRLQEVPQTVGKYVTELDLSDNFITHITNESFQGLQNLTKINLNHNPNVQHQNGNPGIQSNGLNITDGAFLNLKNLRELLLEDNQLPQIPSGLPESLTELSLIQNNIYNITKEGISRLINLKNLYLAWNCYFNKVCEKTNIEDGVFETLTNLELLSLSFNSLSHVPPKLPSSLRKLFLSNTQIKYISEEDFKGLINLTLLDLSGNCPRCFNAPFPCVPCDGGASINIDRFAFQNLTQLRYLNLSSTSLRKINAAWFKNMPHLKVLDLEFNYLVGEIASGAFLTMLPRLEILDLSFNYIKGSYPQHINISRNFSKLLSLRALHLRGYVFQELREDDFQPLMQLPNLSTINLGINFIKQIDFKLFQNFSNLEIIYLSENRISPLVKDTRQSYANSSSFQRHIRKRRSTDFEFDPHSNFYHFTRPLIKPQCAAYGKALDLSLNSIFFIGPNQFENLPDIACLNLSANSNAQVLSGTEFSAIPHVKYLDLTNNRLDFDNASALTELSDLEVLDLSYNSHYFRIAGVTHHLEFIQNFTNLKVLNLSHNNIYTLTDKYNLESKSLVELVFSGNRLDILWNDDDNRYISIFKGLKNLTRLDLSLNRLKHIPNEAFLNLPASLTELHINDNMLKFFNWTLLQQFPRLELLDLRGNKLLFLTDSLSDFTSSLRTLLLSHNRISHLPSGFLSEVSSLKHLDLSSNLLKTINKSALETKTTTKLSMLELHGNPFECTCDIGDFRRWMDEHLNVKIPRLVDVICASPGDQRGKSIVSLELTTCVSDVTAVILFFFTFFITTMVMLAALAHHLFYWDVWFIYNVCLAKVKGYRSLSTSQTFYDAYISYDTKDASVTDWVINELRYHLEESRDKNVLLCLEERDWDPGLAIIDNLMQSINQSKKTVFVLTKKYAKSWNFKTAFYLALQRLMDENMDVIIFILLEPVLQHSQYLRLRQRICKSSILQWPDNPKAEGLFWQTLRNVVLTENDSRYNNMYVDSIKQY
As to the kind of experiment: TLR8 cellular reporter assay (HEK293 TLR8-NFκB-luc). Conditions: lowest effective concentration; HEK293 transiently transfected with TLR8 and NFκB-luc; 6 hours incubation. As to the method:
The ability of compounds to activate human TLR7 and TLR8 was assessed in a cellular reporter assay using HEK293 cells transiently transfected with a TLR7 or TLR8 expression vector and NFκB-luc reporter construct. Briefly, HEK293 cells were grown in culture medium (DMEM supplemented with 10% FCS and 2 mM Glutamine). For transfection of cells in 10 cm dishes, cells were detached with Trypsin-EDTA, transfected with a mix of CMV-TLR7 or TLR8 plasmid (750 ng), NFκB-luc plasmid (375 ng) and a transfection reagent and incubated 48 hours at 37° C. in a humidified 5% CO2 atmosphere. Transfected cells were then detached with Trypsin-EDTA, washed in PBS and resuspended in medium to a density of 1.67×10^5 cells/mL. Thirty microliters of cells were then dispensed into each well in 384-well plates, where 10 μL of compound in 4% DMSO was already present. Following 6 hours incubation at 37° C., 5% CO2, the luciferase activity was determined by adding 15 μl of Steady Lite Plus substrate (Perkin Elmer) to each well and readout performed on a ViewLux ultraHTS microplate imager (Perkin Elmer). Dose response curves were generated from measurements performed in quadruplicates. Lowest effective concentrations (LEC) values, defined as the concentration that induces an effect which is at least two fold above the standard deviation of the assay, were determined for each compound.

Experiment [1] has as its system interferon production in human PBMC. Kind of experiment: Interferon production in human PBMC, read out on HEK-ISRE-luc reporter cells. Conditions: Homo sapiens, PBMC, 24 h, lowest effective concentration, PBMC supernatant after overnight incubation transferred to HEK-ISRE-luc cells, read-out: PBMC HEK-ISRE-luc (LEC; μM). A digest of the protocol: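 Human PBMCs from at least two donors (2×10^5/well, RPMI with 10% human AB serum) incubated overnight with compounds; conditioned supernatant transferred onto HEK-ISRE-luc reporter cells for 24 h. Luciferase read-out reported as LEC, with recombinant interferon alfa-2a as standard.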

In the case of `Nc1nc2nc3c1nc(O)n3Cc1ncccc1OCC/C=C\CO2` [Compound 39], at human TLR7, the “HEK293 TLR7-NFκB-luc (LEC; μM)” value amounted to 1.16 µM. For the same compound, at human TLR8, the “LEC on HEK293 TLR8-NFκB-luc” value was determined as 20.46 µM. Further, the minimal effective concentration in experiment [1] turned out to be 0.22 µM.

In the case of `Nc1nc2nc3c1nc(O)n3Cc1ncccc1OCC/C=C/CO2` [Compound 40], at human TLR7, the “HEK293 TLR7-NFκB-luc (LEC; μM)” value stood at 1.3 µM. In addition, the “LEC on HEK293 TLR8-NFκB-luc” value on human TLR8 was > 19.49 µM. In addition, the minimal effective concentration in experiment [1] stood at 0.15 µM.

In the case of `Nc1nc2nc3c1nc(O)n3Cc1ncccc1/C=C\CCCO2` [Compound 41], at human TLR7, the “HEK293 TLR7-NFκB-luc (LEC; μM)” value was found to be 1.93 µM. The “LEC on HEK293 TLR8-NFκB-luc” value at human TLR8 came to 11.16 µM. Besides, the minimal effective concentration in experiment [1] worked out at 0.48 µM.

For the compound `Nc1nc2nc3c1nc(O)n3Cc1ccccc1C/C=C/CCO2` [Compound 47], the “HEK293 TLR7-NFκB-luc (LEC; μM)” value on human TLR7 is 3.43 µM. Besides, the “LEC on HEK293 TLR8-NFκB-luc” value at human TLR8 came to 5.48 µM. Moreover, the minimal effective concentration in experiment [1] is 2.34 µM.

Take `COc1cc2cc(c1)OC/C=C/COc1nc(N)c3nc(O)n(c3n1)C2` [Compound 75]: the “HEK293 TLR7-NFκB-luc (LEC; μM)” value at human TLR7 stood at 0.0068 µM. For the same compound, the “LEC on HEK293 TLR8-NFκB-luc” value on human TLR8 was 0.27 µM. The minimal effective concentration in experiment [1] came out at 0.0026 µM.
